Test results taken from patent US8546428B2 (priority 2006, dated 2013).

Test system: Mycobacteria including drug resistant strains, in particular Mycobacterium tuberculosis, M. bovis, M. avium, M. leprae and M. marinum
Type: cell-based

## COc1nc2ccc(Br)cc2cc1[C@@H](c1ccccc1)[C@@](O)(CCN(C)C)c1cccc2ccccc12.O=C(O)/C=C/C(=O)O [Present fumarate salt, (alpha S, beta R)-6-bromo-alpha-[2-(dimethylamino)ethyl]-2-methoxy-alpha-1-naphthalenyl-beta-phenyl-3-quinolineethanol (2E)-2-butenedioate (1:1)]
  activity against Mycobacteria: shows activity
